This note sets out measurements from patent US20260327211A1, “MODULATORS OF A POTASSIUM CHANNEL AND OF TRPV1 CHANNEL AND USES THEREOF” (Bsense Bio Therapeutics Ltd., priority 2023, published 2026).

pEC50: −log10 of the molar value. Read-outs that look alike come from different tables or passages of the source. Where only a bound is given, the exact number is not on record here.

The nature of data set [1]: Bidirectional permeability in Caco-2 cells. It is filed as in vitro ADME, human. The protocol:
Cell culture: Caco-2 cells (ATCC) were seeded onto polycarbonate (PC) membranes in 96-well insert plates. The cells were cultured in media for 21-28 days prior to performing the transport assays.
Validation of monolayer integrity: Once the Caco-2 cells formed a confluent monolayer, their integrity was evaluated using a Lucifer yellow rejection assay. The monolayer integrity was further evaluated by measuring, in duplicate wells, the unidirectional (A→B) permeability of nadolol (a low permeability marker) and metoprolol (a high permeability marker), as well as bidirectional permeability of digoxin (a P-glycoprotein substrate marker).
Assay: The compounds were assayed under bidirectional transport conditions (A→B and B→A) at a concentration of 2.00 μM (with DMSO≤1.0%), using a transport buffer composed of HBSS containing 10.0 mM HEPES, pH 7.40±0.05. The incubation was carried out at 37° C., with 5.0% CO2 and relatively saturated humidity for 2 hours.
The dosing solution was spiked and mixed with the transport buffer and a Stop Solution (containing an internal standard (IS)) to create a T0 sample.
Sample analysis: Following the incubation, all of the samples were analyzed using LC-MS/MS. The concentrations of the test compounds were expressed as peak area ratios of the analytes versus the IS.
In general terms: Caco-2 monolayers are a common model of the intestinal barrier.

The test system of a further data set is CYP3A4. Description: CYP inhibition / time-dependent inhibition, CYP3A4_Midazolam. It is filed as in vitro ADME, human. Particulars: for TDI related reactive metabolite: Table 11. The protocol: The time-dependent inactivation potency of the test compound to CYP enzymatic activities was assessed by the pre-incubation of the human liver microsomes with the test compound in the presence and absence of NADPH, followed by the incubation with the discrete marker substrates, as follows.
Pre-incubation with human liver microsomes (HLMs): The TDI inactivation potency on CYP enzymatic activities was evaluated through pre-incubation with HLMs (Corning). A liver microsome mixture at a concentration of 0.1 mg/mL, and the test compound at 8 different concentrations (0, 0.05, 0.165, 0.5, 1.65, 5.0, 16.5, or 50.0 μM) was warmed at 37° C. for 10 minutes. Concurrently, a set of known time-dependent inactivators was also prepared in duplicate for comparison. Following this, NADPH (1.0 mM) was added to one group (Group 1), and an equal volume of potassium phosphate buffer to the second group (Group 2), marking the beginning of a 30-minute pre-incubation at 37° C.
Incubation: After pre-incubation, the marker substrate, or marker substrate plus NADPH was added to the mixture, thereby initiating the incubation. The duration of the incubation was dependent on the type of CYP isoform being evaluated. For example, with the CYP3A isoform, the mixture was incubated over 3 minutes utilizing midazolam as the marker substrate (2.0 μM), verapamil as the standard inactivator (3.5 μM).
Termination of Reaction: Following the incubation, ice-cooled acetonitrile containing the internal standard (IS) was added to halt the reactions. Metabolites generated from the marker substrates were then measured via LC-MS/MS, assessed based on peak area ratios of the analyte to IS.

A further data set has as its target T1, hKv7.4 (Homo sapiens, UniProt P56696).
T1 construct: expressed in transfected cells; host or cells: CHO
Description: Kv7.4 HCS, FLIPR potassium assay. Type of data set: cell-based. The protocol: (§1) Cell culture: Chinese hamster ovary (CHO) cell-line cells were cultured in F-12 nutrient mixture (Biological Industries) supplemented with 10% fetal bovine serum with 1% penicillin-streptomycin (Biological Industries) in a humidified 5% CO2 incubator at 37° C. To express the appropriate gene either Kv7.3/5, Kv7.4 or TRPA1 5 μg plasmid was transfected using Amaxa, DT-133 program, with p-3 Kit.
(§2) Kv7.3/5 and 7.4HCS using FLIPR Potassium Assay Kit: Kv7.3/5 and 7.4 HCS using the FLIPR Potassium Assay Kit was performed similarly to the Kv7.2/3 HCS, except that the Tecan Spark plate-reader injectors were primed with Tl+(1 mM Tl2SO4) or Tl++K+(1 mM Tl2SO4; 5 mM K2SO4) for Kv7.3/5, or Tl+(1 mM Tl2SO4) or Tl++K+(1 mM Tl2SO4; 10 mM K2SO4) for Kv7.4 for channel activation and data correction.
(§3) FLIPR Potassium Assay Kit: The FLIPR Potassium Assay Kit (R8222 FLIPR Potassium Assay Explorer Kits, Molecular Devices) was used with transfected CHO cells.
(§4) According to optimization process, to achieve a uniform and consistent screening condition of molecules, the following protocol was established: 2 days following transfection cells were seeded in 384-well, black-walled, clear-bottomed, at a density of 5,000 cells per well 24 hours before the assay conductance and incubated overnight in their normal growth medium. On the experiment day the medium was replaced with HBSS, HEPES, and the tested compound/vehicle (0.2% DMSO). Dye solution (prepared according to the manufacturer) was added to the wells and plates were incubated for 1.5 hour light-protected in room temperature. The Tecan Spark plate-reader injectors were primed with Tl+(1 mM Tl2SO4) or Tl++K+(1 mM Tl2SO4; 5 mM K2SO4) for Kv7.3/5 channel activation and data correction or Tl+(1 mM Tl2SO4) or Tl++K+(1 mM Tl2SO4; 10 mM K2SO4) for Kv7.4 for channel activation and data correction. […] To calculate IC50 values, the data was fitted to sigmoidal regression using Prism GraphPad.

The next data set addresses T2, hKv7.3/5 (Homo sapiens, UniProt O43525+Q9NR82).
T2 construct: expressed in transfected cells; host or cells: CHO
The experiment in a line: Kv7.3/5 HCS, FLIPR potassium assay. It is filed as cell-based. On the procedure: as §1, §2, §3, §4

Data set [2] is described as follows: Plasma protein binding, rat. It is filed as in vitro ADME. Particulars: read-out: PPB fu (rat). The protocol: Incubation: Test compounds or the positive control warfarin were introduced into 10% plasma samples (Sourced from WuXi DMPK labs or from commercial vendors) to a concentration of 2 μM. A portion of 150 μL of the compound-containing plasma sample was added to one chamber of a 96-well equilibrium HTD dialysis plate. An equal volume of dialysis buffer was added to the corresponding chamber. A plasma sample was also taken before the incubation and designated as the T0 sample, serving for recovery calculation. The plate was incubated in a humidified 5% CO2 incubator at 37° C. for 4 hours. Each incubation was set up in triplicate.
Sample extraction and preparation: Following the incubation period, samples of 50 μL were drawn from both the plasma side and the buffer side and each was mixed with an equal volume of blank plasma. All matrix-matched samples were quenched using a stop solution containing an internal standard (IS).
Sample Analysis: The samples were subsequently analyzed by LC-MS/MS. The concentrations of the test compound in plasma and buffer samples were quantified based on the peak area ratio of analyte to the internal standard, with no requirement for a standard curve.

T1 sequence (P56696 whole entry): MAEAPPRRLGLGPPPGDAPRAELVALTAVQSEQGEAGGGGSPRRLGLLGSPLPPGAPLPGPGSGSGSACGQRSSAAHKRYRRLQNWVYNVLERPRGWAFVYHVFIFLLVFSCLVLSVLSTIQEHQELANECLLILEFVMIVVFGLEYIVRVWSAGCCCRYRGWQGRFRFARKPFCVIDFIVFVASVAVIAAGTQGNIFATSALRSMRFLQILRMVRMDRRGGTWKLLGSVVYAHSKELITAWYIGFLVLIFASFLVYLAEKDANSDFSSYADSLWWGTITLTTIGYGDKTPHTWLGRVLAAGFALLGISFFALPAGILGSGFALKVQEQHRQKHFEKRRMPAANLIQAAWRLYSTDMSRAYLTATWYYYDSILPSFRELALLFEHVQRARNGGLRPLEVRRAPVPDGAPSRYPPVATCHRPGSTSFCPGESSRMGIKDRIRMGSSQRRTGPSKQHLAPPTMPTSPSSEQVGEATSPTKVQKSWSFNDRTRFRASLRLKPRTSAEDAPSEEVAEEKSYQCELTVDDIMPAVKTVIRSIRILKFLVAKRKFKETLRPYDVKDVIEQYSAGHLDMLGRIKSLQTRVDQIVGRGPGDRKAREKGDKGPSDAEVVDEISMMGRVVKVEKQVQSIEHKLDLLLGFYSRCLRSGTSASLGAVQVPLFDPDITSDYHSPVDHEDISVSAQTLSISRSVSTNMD
T2 sequence (O43525 whole entry): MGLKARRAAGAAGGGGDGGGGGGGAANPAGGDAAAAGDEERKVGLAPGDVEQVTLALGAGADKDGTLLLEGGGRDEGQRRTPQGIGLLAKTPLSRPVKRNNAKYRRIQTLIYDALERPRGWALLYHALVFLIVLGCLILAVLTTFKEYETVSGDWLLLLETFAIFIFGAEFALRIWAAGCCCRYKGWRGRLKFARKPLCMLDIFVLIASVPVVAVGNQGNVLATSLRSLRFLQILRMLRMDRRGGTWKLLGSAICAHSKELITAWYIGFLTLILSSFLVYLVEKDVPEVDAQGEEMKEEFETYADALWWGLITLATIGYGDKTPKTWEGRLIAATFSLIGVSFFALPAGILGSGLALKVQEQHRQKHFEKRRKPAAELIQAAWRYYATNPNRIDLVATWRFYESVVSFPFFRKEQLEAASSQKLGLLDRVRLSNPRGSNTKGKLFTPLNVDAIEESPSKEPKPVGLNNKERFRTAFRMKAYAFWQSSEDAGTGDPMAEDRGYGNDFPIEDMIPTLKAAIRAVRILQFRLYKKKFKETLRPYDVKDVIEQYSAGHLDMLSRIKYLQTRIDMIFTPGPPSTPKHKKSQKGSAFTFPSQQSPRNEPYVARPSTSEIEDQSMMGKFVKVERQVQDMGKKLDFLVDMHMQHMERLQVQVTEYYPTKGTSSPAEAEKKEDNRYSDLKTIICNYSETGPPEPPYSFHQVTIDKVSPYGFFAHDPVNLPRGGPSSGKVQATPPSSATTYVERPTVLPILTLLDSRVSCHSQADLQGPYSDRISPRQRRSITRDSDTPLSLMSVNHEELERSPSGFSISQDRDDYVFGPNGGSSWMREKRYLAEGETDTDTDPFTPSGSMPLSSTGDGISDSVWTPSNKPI
T2 sequence (Q9NR82 whole entry): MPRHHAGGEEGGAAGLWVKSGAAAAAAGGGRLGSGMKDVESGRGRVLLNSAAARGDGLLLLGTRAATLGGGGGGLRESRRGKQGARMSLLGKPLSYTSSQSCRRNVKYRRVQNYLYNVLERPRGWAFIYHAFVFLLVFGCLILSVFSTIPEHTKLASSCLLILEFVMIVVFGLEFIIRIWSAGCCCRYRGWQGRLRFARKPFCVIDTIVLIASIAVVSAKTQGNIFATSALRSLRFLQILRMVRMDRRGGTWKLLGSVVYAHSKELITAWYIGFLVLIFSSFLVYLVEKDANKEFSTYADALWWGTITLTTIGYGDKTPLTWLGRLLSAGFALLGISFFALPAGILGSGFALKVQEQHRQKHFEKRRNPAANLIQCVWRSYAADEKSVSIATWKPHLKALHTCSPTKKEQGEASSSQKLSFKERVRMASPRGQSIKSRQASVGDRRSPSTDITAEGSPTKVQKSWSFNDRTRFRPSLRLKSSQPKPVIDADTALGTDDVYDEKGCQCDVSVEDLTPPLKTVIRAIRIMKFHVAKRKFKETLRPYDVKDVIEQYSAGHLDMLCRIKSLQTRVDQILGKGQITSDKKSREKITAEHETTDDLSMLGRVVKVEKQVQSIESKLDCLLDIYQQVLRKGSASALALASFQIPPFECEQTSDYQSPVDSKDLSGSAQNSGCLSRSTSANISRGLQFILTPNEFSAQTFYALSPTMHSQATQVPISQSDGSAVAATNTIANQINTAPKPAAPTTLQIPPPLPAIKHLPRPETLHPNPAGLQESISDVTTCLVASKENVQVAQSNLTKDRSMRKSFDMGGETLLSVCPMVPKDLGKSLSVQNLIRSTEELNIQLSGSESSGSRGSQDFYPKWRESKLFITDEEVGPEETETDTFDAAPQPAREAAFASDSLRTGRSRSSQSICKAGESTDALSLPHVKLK

Turning to `O=C(Cc1ccnc(-n2cc(Cl)c3cc(Cl)cc(Cl)c32)n1)N[C@@H]1COC[C@H]1O` [Compound 820], the “Caco-2 Efflux ratio” value in data set [1] (2.00 μM, 120 min) amounted to 2.49. Further, the efflux ratio – broadly, a quotient of directional permeabilities that is used to spot active efflux – at 2 h, 2 µM in data set [1] (human, Caco-2, pH 7.4, 2.00 μM) is less than 3. Besides, in the data set with CYP3A4 (role: inhibitor, substrate midazolam 2.0 μM, CYP TDI ratio), the “CYP-TDI (midazolam), (−)NADPH/(+)NADPH Ratio CYP3A4” value is less than 0.9.
As to `O=C(Cc1cncc(-n2cc(Cl)c3cc(Cl)cc(Cl)c32)c1)N[C@@H]1COC[C@H]1O` [Compound 661], the “Kv7.4 activity” value at hKv7.4 is recorded as “no measurable activity at any concentration tested”. For the same compound, the pEC50 on hKv7.4 (read-out: Kv7.4 EC50 HCS) is 4.31; on hKv7.3/5 (read-out: Kv7.3/5 EC50 HCS), 4.39. In data set [1], the “Caco-2 AB” value was 1.78. The fraction unbound at 4 h, 2 µM in data set [2] worked out at 0.0029. In addition, the “TDI related reactive metabolite” value in the data set on CYP3A4 is “Yes”.
Regarding `O=C(Cc1cc(-n2cc(Cl)c3cc(Cl)cc(Cl)c32)ccc1F)NCCO` [Compound 627], the results for the pEC50 on hKv7.4 (read-out: Kv7.4 EC50 HCS) and at hKv7.3/5 (read-out: Kv7.3/5 EC50 HCS) were 4.06 and less than 6.22, respectively. The fraction unbound at 4 h, 2 µM in data set [2] is 0.0004. For the same compound, the “TDI related reactive metabolite” value in the data set on CYP3A4 is listed as “Yes”.
`Cc1cn(-c2ccc(F)c(CC(=O)NCC(C)(C)O)c2)c2c(Cl)cc(Cl)cc12` [Compound 421]: the results for the pEC50 at hKv7.4 (read-out: Kv7.4 EC50 HCS) and on hKv7.3/5 (read-out: Kv7.3/5 EC50 HCS) were less than 5.70 and 5.52, respectively. The fraction unbound at 4 h, 2 µM in data set [2] was determined as 0.0004. Besides, in the data set with CYP3A4, the “TDI related reactive metabolite” value is “Yes”.
With `O=C(Cc1nccc(-n2cc(Cl)c3cc(Cl)cc(Cl)c32)n1)NC1COCC1O` (centres unmarked) [Compound 760], the “Kv7.4 activity” value on hKv7.4 was “lacks any effect on hERG and Kv7.3/4/5 activity below 10 μM”. The pEC50 was 4.34 on hKv7.4 (Thallium ions (Tl+) fluorescence, read-out: hKv7.4 EC50) and 4.97 on hKv7.3/5 (Thallium ions (Tl+) fluorescence, read-out: hKv7.3/5 EC50). Moreover, the “Caco-2 AB” value in data set [1] was 7.6. Besides, the “TDI related reactive metabolite” value in the data set with CYP3A4 is “No”. Further, the “CYP inhibition / TDI, all CYPs of Table 9” value in the data set with CYP3A4 (role: inhibitor, up to 20 micromolar) is on record as “did not show significant CYP inhibition or time-dependent inhibition (TDI)”.
